Test results published in patent US12077503B2, “Substituted cyclic amides and their use as herbicides” (FMC CORPORATION, priority 2015, dated 2024).

Assays:
Format in all cases: in vivo
[1] = tested on: ivy-leaved morning glory (Ipomoea hederacea); test: Test G Post-Emergence Protocol; details: Ipomoea, post-emergence, 312 h; for pest or weed control at 15.625 g/ha: 15.625 g ai/ha, evaluated after 13 days (100=total damage to plant; 0=no damage to plant), read-out: Morningglory, Ivy-leaved damage rating; for pest or weed control at 62.5 g/ha: 62.5 g ai/ha, read-out: Morningglory, Ivy-leaved damage rating (100=total damage to plant; 0=no damage to plant); for pest or weed control at 62.5 g/ha / pest or weed control at 250 g/ha: evaluated after 13 days; for pest or weed control at 250 g/ha: 250 g ai/ha, read-out: damage to plant, Morningglory, Ivy-leaved (100=total damage to plant; 0=no damage to plant)
In short: (§1)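 Values are percent visual injury at 13 days after treatment (0 none, 100 total). Treatment was a post-emergence spray at 15.625, 62.5 or 250 g/ha on 8-day-old pot plants kept at 24/16 °C.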

[2] = tested on: barnyardgrass (Echinochloa crus-galli); test: Test G Post-Emergence Protocol; details: Echinochloa crus-galli, post-emergence, 312 h; for pest or weed control at 15.625 g/ha: 15.625 g ai/ha, evaluated after 13 days (100=total damage to plant; 0=no damage to plant), read-out: Barnyardgrass damage rating; for pest or weed control at 62.5 g/ha: 62.5 g ai/ha, read-out: Barnyardgrass damage rating (100=total damage to plant; 0=no damage to plant); for pest or weed control at 62.5 g/ha / pest or weed control at 250 g/ha: evaluated after 13 days; for pest or weed control at 250 g/ha: 250 g ai/ha, read-out: damage to plant, Barnyardgrass (100=total damage to plant; 0=no damage to plant)
In short: as §1

[3] = tested on: velvetleaf (Abutilon theophrasti); test: Test G Post-Emergence Protocol; details: Abutilon theophrasti, post-emergence, 312 h; for pest or weed control at 15.625 g/ha: 15.625 g ai/ha, evaluated after 13 days (100=total damage to plant; 0=no damage to plant), read-out: Velvetleaf damage rating; for pest or weed control at 62.5 g/ha: 62.5 g ai/ha, read-out: Velvetleaf damage rating (100=total damage to plant; 0=no damage to plant); for pest or weed control at 62.5 g/ha / pest or weed control at 250 g/ha: evaluated after 13 days; for pest or weed control at 250 g/ha: 250 g ai/ha, read-out: damage to plant, Velvetleaf (100=total damage to plant; 0=no damage to plant)
In short: as §1

[4] = tested on: giant foxtail (Setaria faberi); test: Test G Post-Emergence Protocol; details: Setaria faberi, post-emergence, 312 h; for pest or weed control at 15.625 g/ha: 15.625 g ai/ha, evaluated after 13 days (100=total damage to plant; 0=no damage to plant), read-out: Foxtail, Giant damage rating; for pest or weed control at 62.5 g/ha: 62.5 g ai/ha, read-out: Foxtail, Giant damage rating (100=total damage to plant; 0=no damage to plant); for pest or weed control at 62.5 g/ha / pest or weed control at 250 g/ha: evaluated after 13 days; for pest or weed control at 250 g/ha: 250 g ai/ha, read-out: damage to plant, Foxtail, Giant (100=total damage to plant; 0=no damage to plant)
In short: as §1

corn (Zea mays) [5] = test: Test G Post-Emergence Protocol; details: Zea mays, post-emergence, 312 h; for plant injury at 15.625 g/ha: 15.625 g ai/ha, evaluated after 13 days (100=total damage to plant; 0=no damage to plant), read-out: Corn damage rating; for plant injury at 62.5 g/ha: 62.5 g ai/ha, read-out: Corn damage rating (100=total damage to plant; 0=no damage to plant); for plant injury at 62.5 g/ha / plant injury at 250 g/ha: evaluated after 13 days; for plant injury at 250 g/ha: 250 g ai/ha, read-out: damage to plant, Corn (100=total damage to plant; 0=no damage to plant)
In short: as §1

[6] = tested on: redroot pigweed (Amaranthus retroflexus); test: Test G Post-Emergence Protocol; details: Amaranthus retroflexus, post-emergence, 312 h; for pest or weed control at 15.625 g/ha: 15.625 g ai/ha, evaluated after 13 days (100=total damage to plant; 0=no damage to plant), read-out: Pigweed, Redroot damage rating; for pest or weed control at 62.5 g/ha: 62.5 g ai/ha, read-out: Pigweed, Redroot damage rating (100=total damage to plant; 0=no damage to plant); for pest or weed control at 62.5 g/ha / pest or weed control at 250 g/ha: evaluated after 13 days; for pest or weed control at 250 g/ha: 250 g ai/ha, read-out: damage to plant, Pigweed, Redroot (100=total damage to plant; 0=no damage to plant)
In short: as §1

[7] = tested on: ivy-leaved morning glory (Ipomoea hederacea); test: Test G Pre-Emergence Protocol; details: Ipomoea, pre-emergence, 312 h, evaluated after 13 days; for pest or weed control at 15.625 g/ha: 15.625 g ai/ha, read-out: Morning-glory, Ivy-leaved damage rating (100=total damage to plant; 0=no damage to plant); for pest or weed control at 62.5 g/ha: 62.5 g ai/ha, 100=total damage to plant, 0=no damage to plant, read-out: plant damage rating, Morningglory, Ivy-leaved; for pest or weed control at 250 g/ha: 250 g ai/ha, read-out: Morningglory, Ivy-leaved damage rating (100=total damage to plant; 0=no damage to plant)
In short: (§2)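 Herbicidal effect was rated 13 days post-application on a scale where 100 equals total damage. Spraying took place the day after sowing, using 15.625, 62.5 or 250 g/ha of compound in a 50:50 acetone/water solution with 0.5% Tween 20.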

[8] = tested on: barnyardgrass (Echinochloa crus-galli); test: Test G Pre-Emergence Protocol; details: Echinochloa crus-galli, pre-emergence, 312 h, evaluated after 13 days; for pest or weed control at 15.625 g/ha: 15.625 g ai/ha, read-out: Barnyard grass damage rating (100=total damage to plant; 0=no damage to plant); for pest or weed control at 62.5 g/ha: 62.5 g ai/ha, 100=total damage to plant, 0=no damage to plant, read-out: plant damage rating, Barnyardgrass; for pest or weed control at 250 g/ha: 250 g ai/ha, read-out: Barnyardgrass damage rating (100=total damage to plant; 0=no damage to plant)
In short: as §2

[9] = tested on: velvetleaf (Abutilon theophrasti); test: Test G Pre-Emergence Protocol; details: Abutilon theophrasti, pre-emergence, 312 h, evaluated after 13 days; for pest or weed control at 15.625 g/ha: 15.625 g ai/ha; for pest or weed control at 15.625 g/ha / pest or weed control at 250 g/ha: read-out: Velvetleaf damage rating (100=total damage to plant; 0=no damage to plant); for pest or weed control at 62.5 g/ha: 62.5 g ai/ha, 100=total damage to plant, 0=no damage to plant, read-out: plant damage rating, Velvetleaf; for pest or weed control at 250 g/ha: 250 g ai/ha
In short: as §2

[10] = tested on: giant foxtail (Setaria faberi); test: Test G Pre-Emergence Protocol; details: Setaria faberi, pre-emergence, 312 h, evaluated after 13 days; for pest or weed control at 15.625 g/ha: 15.625 g ai/ha; for pest or weed control at 15.625 g/ha / pest or weed control at 250 g/ha: read-out: Foxtail, Giant damage rating (100=total damage to plant; 0=no damage to plant); for pest or weed control at 62.5 g/ha: 62.5 g ai/ha, 100=total damage to plant, 0=no damage to plant, read-out: plant damage rating, Foxtail, Giant; for pest or weed control at 250 g/ha: 250 g ai/ha
In short: as §2

corn (Zea mays) [11] = test: Test G Pre-Emergence Protocol; details: Zea mays, pre-emergence, 312 h, evaluated after 13 days; for plant injury at 15.625 g/ha: 15.625 g ai/ha; for plant injury at 15.625 g/ha / plant injury at 250 g/ha: read-out: Corn damage rating (100=total damage to plant; 0=no damage to plant); for plant injury at 62.5 g/ha: 62.5 g ai/ha, 100=total damage to plant, 0=no damage to plant, read-out: plant damage rating, Corn; for plant injury at 250 g/ha: 250 g ai/ha
In short: as §2

[12] = tested on: redroot pigweed (Amaranthus retroflexus); test: Test G Pre-Emergence Protocol; details: Amaranthus retroflexus, pre-emergence, 312 h, evaluated after 13 days; for pest or weed control at 15.625 g/ha: 15.625 g ai/ha; for pest or weed control at 15.625 g/ha / pest or weed control at 250 g/ha: read-out: Pigweed, Redroot damage rating (100=total damage to plant; 0=no damage to plant); for pest or weed control at 62.5 g/ha: 62.5 g ai/ha, 100=total damage to plant, 0=no damage to plant, read-out: plant damage rating, Pigweed, Redroot; for pest or weed control at 250 g/ha: 250 g ai/ha
In short: as §2

CN1C[C@@H](c2ccc(C(F)(F)F)cc2)[C@H](C(=O)Nc2ccc(C#N)cc2Cl)C1=O (racemic) [Compound 1620]
0%: pest or weed control at 15.625 g/ha [1] | pest or weed control at 62.5 g/ha [1] | pest or weed control at 250 g/ha [1] | pest or weed control at 15.625 g/ha [2] | pest or weed control at 62.5 g/ha [2] | pest or weed control at 250 g/ha [2] | pest or weed control at 15.625 g/ha [3] | pest or weed control at 62.5 g/ha [3] | pest or weed control at 250 g/ha [3] | pest or weed control at 15.625 g/ha [4] | pest or weed control at 62.5 g/ha [4] | pest or weed control at 250 g/ha [4] | plant injury at 15.625 g/ha (corn (Zea mays) [5]) | plant injury at 62.5 g/ha (corn (Zea mays) [5]) | plant injury at 250 g/ha (corn (Zea mays) [5]) | pest or weed control at 15.625 g/ha [6] | pest or weed control at 62.5 g/ha [6] | pest or weed control at 250 g/ha [6] | pest or weed control at 15.625 g/ha [7] | pest or weed control at 62.5 g/ha [7] | pest or weed control at 250 g/ha [7] | pest or weed control at 15.625 g/ha [8] | pest or weed control at 62.5 g/ha [8] | pest or weed control at 250 g/ha [8] | pest or weed control at 15.625 g/ha [9] | pest or weed control at 62.5 g/ha [9] | pest or weed control at 250 g/ha [9] | pest or weed control at 15.625 g/ha [10] | pest or weed control at 62.5 g/ha [10] | pest or weed control at 250 g/ha [10] | plant injury at 15.625 g/ha (corn (Zea mays) [11]) | plant injury at 62.5 g/ha (corn (Zea mays) [11]) | plant injury at 250 g/ha (corn (Zea mays) [11]) | pest or weed control at 15.625 g/ha [12] | pest or weed control at 62.5 g/ha [12] | pest or weed control at 250 g/ha [12]

CSc1nnc(NC(=O)[C@@H]2C(=O)N(C)C[C@H]2c2ccc(C(F)(F)F)cc2)[nH]1 (racemic) [Compound 1603]
0%: pest or weed control at 15.625 g/ha [1] | pest or weed control at 62.5 g/ha [1] | pest or weed control at 250 g/ha [1] | pest or weed control at 15.625 g/ha [2] | pest or weed control at 62.5 g/ha [2] | pest or weed control at 250 g/ha [2] | pest or weed control at 15.625 g/ha [3] | pest or weed control at 62.5 g/ha [3] | pest or weed control at 250 g/ha [3] | pest or weed control at 15.625 g/ha [4] | pest or weed control at 62.5 g/ha [4] | pest or weed control at 250 g/ha [4] | plant injury at 15.625 g/ha (corn (Zea mays) [5]) | plant injury at 62.5 g/ha (corn (Zea mays) [5]) | plant injury at 250 g/ha (corn (Zea mays) [5]) | pest or weed control at 15.625 g/ha [6] | pest or weed control at 62.5 g/ha [6] | pest or weed control at 250 g/ha [6] | pest or weed control at 15.625 g/ha [7] | pest or weed control at 62.5 g/ha [7] | pest or weed control at 250 g/ha [7] | pest or weed control at 15.625 g/ha [8] | pest or weed control at 62.5 g/ha [8] | pest or weed control at 250 g/ha [8] | pest or weed control at 15.625 g/ha [9] | pest or weed control at 62.5 g/ha [9] | pest or weed control at 250 g/ha [9] | pest or weed control at 15.625 g/ha [10] | pest or weed control at 62.5 g/ha [10] | pest or weed control at 250 g/ha [10] | plant injury at 15.625 g/ha (corn (Zea mays) [11]) | plant injury at 62.5 g/ha (corn (Zea mays) [11]) | plant injury at 250 g/ha (corn (Zea mays) [11]) | pest or weed control at 15.625 g/ha [12] | pest or weed control at 62.5 g/ha [12] | pest or weed control at 250 g/ha [12]
